Patent US20140148419A1, “Treatment of Excessive Menstrual Bleeding Associated with Uterine Fibroids” (PREGLEM SA, priority 2011, published 2014)

Test system: premenopausal women with heavy uterine bleeding due to uterine fibroids
Assay: Double-blind, randomized, placebo-controlled clinical study; menstrual bleeding assessed by pictorial blood loss assessment chart (PBAC), with or without later uterine artery embolization (UAE)
Type: in vivo, human
Conditions: for % Patient with PBAC < 75 at baseline / PBAC at baseline: before treatment; for PBAC at baseline / PBAC 3 months after treatment stop / PBAC 6 months after treatment stop / PBAC at week 13 of treatment: Mean +/- SD
Protocol: A double-blind, randomized, placebo-controlled study was conducted to evaluate the long term effect of ulipristal acetate in the treatment of uterine fibroids. Patients included premenopausal women 18-50 years with heavy uterine bleeding due to uterine fibroids who were eligible for surgery. These patients met the criteria of a Pictorial Bleeding Assessment Chart (PBAC) score >100 during days 1-8 of menstruation.
The patients were randomized in a 2:2:1 manner to receive for 12 weeks, either ulipristal acetate (UPA) 5 mg or ulipristal acetate 10 mg or placebo. In addition, all patients received concomitant iron therapy (1 tablet of 80 mg or iron once daily, Tardyfero®). The reference to 2:2:1 means that for every 5 patients, two would be randomized to receive UA 5 mg, two to receive UA 10 mg and one to receive placebo.
Forty-eight patients received a daily placebo treatment, 95 patients received a daily dose of 5 mg ulipristal acetate (Esmya®), and 98 patients received a daily dose of 10 mg ulipristal acetate (Esmya®). […] Thirty-three subjects underwent a Uterine Artery Embolization at or after week 13: 4 patients in the placebo group (group 4), 11 patients in the 5 mg ulipristal (Esmya®) group (group 5) and 18 patients in the 10 mg ulipristal (Esmya®)) group (group 6).
For study enrollment as well as follow-up assessment, menstrual bleeding was assessed using the pictorial blood loss assessment chart (PBAC) developed by Higham and colleagues (Higham J M, O'Brien P M, Shaw R W. Assessment of menstrual blood loss using a pictorial chart. Br J Obstet Gynaecol 1990; 97:734-9). The PBAC is one of the current standard methods used to objectively estimate menstrual blood loss and diagnose menorrhagia. Abnormal bleeding is defined as PBAC score >100 over 8 days of menstruation. Normal menstrual bleeding PBAC is <75. Amenorrhea is PBAC=0.
The PBAC score was assessed before treatment (Baseline), at week 13 after the end of treatment with ulipristal, at 3 months and 6 months after […].
The PBAC and the % of patients with a PBAC <75 was reported before treatment (Baseline), at week 13 after the end of treatment with ulipristal, at 3 months and 6 months after the treatment stop.

[1] = 5 mg daily, no UAE or any other surgery (Group 2)
[2] = 5 mg daily, no UAE or any other surgery (Group 2), listed as ulipristal
[3] = 5 mg daily, with UAE (Group 5), listed as ulipristal
[4] = 10 mg daily, no UAE or any other surgery (Group 3)
[5] = 10 mg daily, no UAE or any other surgery (Group 3), listed as ulipristal
[6] = 10 mg daily, with UAE (Group 6)
[7] = 10 mg daily, with UAE (Group 6), listed as ulipristal
[8] = 5 mg daily, with UAE performed after treatment stop (Group 5)
[9] = 10 mg daily, with UAE performed after treatment stop (Group 6)

CC(=O)O[C@]1(C(C)=O)CC[C@H]2[C@@H]3CCC4=CC(=O)CCC4=C3[C@@H](c3ccc(N(C)C)cc3)C[C@@]21C [Esmya, 17α-acetoxy-11β-[4-N,N-dimethylaminophenyl)-19-norpregna-4,9-diene-3,20-dione]
% Patient with PBAC < 75, 3 months after end of treatment [1]: 15% | % Patient with PBAC < 75, 6 months after end of treatment [1]: 17% | % Patient with PBAC < 75 at week 13 of treatment [1]: 98% | % Patient with PBAC < 75 at baseline [1]: 0% | % Patient with PBAC < 75, 3 months after end of treatment [2]: 15% | % Patient with PBAC < 75 at week 13 of treatment [2]: 98% | % Patient with PBAC < 75, 3 months after end of treatment (5 mg daily, with UAE (Group 5)): 36% | % Patient with PBAC < 75, 6 months after end of treatment (5 mg daily, with UAE (Group 5)): 27% | % Patient with PBAC < 75 at week 13 of treatment (5 mg daily, with UAE (Group 5)): 100% | % Patient with PBAC < 75 at baseline (5 mg daily, with UAE (Group 5)): 0% | % Patient with PBAC < 75, 3 months after end of treatment [3]: 36% | % Patient with PBAC < 75, 6 months after end of treatment [3]: 27% | % Patient with PBAC < 75 at week 13 of treatment [3]: 100% | % Patient with PBAC < 75, 3 months after end of treatment [4]: 17% | % Patient with PBAC < 75, 6 months after end of treatment [4]: 26% | % Patient with PBAC < 75 at week 13 of treatment [4]: 97% | % Patient with PBAC < 75 at baseline [4]: 0% | % Patient with PBAC < 75, 3 months after end of treatment [5]: 17% | % Patient with PBAC < 75 at week 13 of treatment [5]: 97% | % Patient with PBAC < 75, 3 months after end of treatment [6]: 60% | % Patient with PBAC < 75, 6 months after end of treatment [6]: 53% | % Patient with PBAC < 75 at week 13 of treatment [6]: 100% | % Patient with PBAC < 75 at baseline [6]: 0% | % Patient with PBAC < 75, 3 months after end of treatment [7]: 60% | % Patient with PBAC < 75, 6 months after end of treatment [7]: 53% | % Patient with PBAC < 75 at week 13 of treatment [7]: 100% | PBAC at baseline (5 mg daily oral 12 weeks, no UAE or any other surgery (Group 2)): 419 +/− 281 | PBAC at baseline (5 mg daily oral 12 weeks, with UAE performed after treatment stop (Group 5)): 490 +/− 231 | PBAC 3 months after treatment stop [1]: 337 +/− 300 | PBAC 6 months after treatment stop [1]: 338 +/− 233 | PBAC at week 13 of treatment [1]: 13 +/− 69 | PBAC 3 months after treatment stop [8]: 202 +/− 102 | PBAC 6 months after treatment stop [8]: 207 +/− 117 | PBAC at week 13 of treatment [8]: 25 +/− 60 | PBAC at baseline (10 mg daily oral 12 weeks, no UAE or any other surgery (Group 3)): 340 +/− 187 | PBAC at baseline (10 mg daily oral 12 weeks, with UAE performed after treatment stop (Group 6)): 375 +/− 135 | PBAC 3 months after treatment stop [4]: 417 +/− 669 | PBAC 6 months after treatment stop [4]: 203 +/− 161 | PBAC at week 13 of treatment [4]: 2 +/− 13 | PBAC 3 months after treatment stop [9]: 120 +/− 55 | PBAC 6 months after treatment stop [9]: 136 +/− 70 | PBAC at week 13 of treatment [9]: 0 +/− 0 | effect for controlling menstrual bleeding resulting from oral administration prior to UAE (oral ulipristal prior to UAE versus ulipristal alone and UAE alone): synergistic effect
